Measured values from ChEMBL document CHEMBL1828523, “Synthesis and stereospecificity of 4,5-disubstituted oxazolidinone ligands binding to T-box riboswitch RNA” (J Med Chem, 2011).

Biological target: Nucleic Acid
Assay: Binding affinity to Bacillus subtilis antiterminator AM1A RNA model after 70 mins by FRET assay
Type: nucleic-acid assay

`O=C(Cc1ccccc1)OC[C@H]1OC(=O)N[C@H]1CN1CCN(c2ccccc2)CC1` (racemic) showed a Kd of 5.1 µM.

Biological target: Nucleic Acid
Assay: Binding affinity to Bacillus subtilis antiterminator AM1A RNA model after 130 mins by FRET assay
Type: nucleic-acid assay

First: CC(=O)c1ccc(NC(=O)OC[C@@H]2OC(=O)N[C@H]2CN2CCN(c3ccccc3)CC2)cc1
Second: CC(=O)c1ccc(NC(=O)OC[C@H]2OC(=O)N[C@@H]2CN2CCN(c3ccccc3)CC2)cc1
The Kd of the first is 1.9-fold lower: 1.6 µM for the first, 3 µM for the second. The first binds more tightly here.

First: O=C(Cc1ccccc1)OC[C@H]1OC(=O)N[C@@H]1CN1CCN(c2ccccc2)CC1
Second: O=C(Cc1ccccc1)OC[C@H]1OC(=O)N[C@H]1CN1CCN(c2ccccc2)CC1 (racemic)
The Kd of the first is lower: 12 µM for the first, > 100 µM for the second.

First: O=C(Cc1ccccc1)OC[C@@H]1OC(=O)N[C@H]1CN1CCN(c2ccccc2)CC1
Second: CC(=O)c1ccc(NC(=O)OC[C@H]2OC(=O)N[C@H]2CN2CCN(c3ccccc3)CC2)cc1 (racemic)
The Kd of the first is 8.9-fold higher: 16 µM for the first, 1.8 µM for the second.
